Data taken from patent US7582471B2, “Biosensor for the detection of protein kinase A, and kit comprising the same” (Korea Institute of Science and Technology, priority 2006, dated 2009).
Where no end group is shown, it is not given here. The star is where a group is joined. Biotin = O=C1N[C@H]2[C@H](CS[C@H]2CCCCC(=O)*)N1

What was measured:
PKA [1] = molecular target: T1, PKA (Homo sapiens, UniProt P17612); conditions: 132 nM PKA, even at the highest ATP concentration applied
Procedure: The effect of ATP on the PKA-PKI binding was also evaluated using an SPR analyzer, Biacore 3000 biosensor system (Biacore, U.S.A.). The surface of a CM5 sensor chip (Biacore, Applied Biosystems, U.S.A.) was activated with N-ethyl-N′-(3-dimethylaminopropyl)carbodiimide (EDC) and N-hydroxysuccinimide (NHS), and 50 μg/mL streptavidin was applied thereto, to immobilize on the surface of sensor via an amine-coupling method. […] The mixture solutions of 132 nM PKA and varying concentrations of ATP were applied at the rate of 30 μM/min for 100 seconds, and the buffer solution was then applied for 200 seconds, to obtain sensorgrams.

PKA [2] = molecular target: T1, PKA; conditions: read-out: affinity for PKA; cited from earlier work

Biotin-LRRAALG [biotin-Ala-kemptide]
binding of PKA to immobilized peptide (SPR) (PKA [1]): not observed
Kd (PKA [2]): 10 µM
